# Reference: patent publication US9290455B2, “CDDO-Me amino acid conjugates and methods of use” (Trustees of Dartmouth College, priority 2014, dated 2016)
# Tested on: reactive oxygen species
# Assay: Reactive oxygen species in tBHP-challenged RAW cells (H2DCFA, flow cytometry)
# Type: cell-based
# Details: 100 nM for 18 hours, 250 μM tBHP for 15 minutes
# Method: RAW264.7 cells were incubated with 10 and 100 nM of the synthetic triterpenoids for 18 hours, H2DCFA was then added for 30 minutes and the cells were challenged with 250 μM of tert-butyl hydroperoxide for 15 minutes to induce ROS. Mean fluorescence intensity of 50,000 cells was detected by flow cytometry. The results were obtained from three independent experiments.
# The antioxidative activity of these compounds was explored as well. This experiment was based on the deacetylation and then oxidation of the non-fluorescent reagent 2′,7′-dichlorodihydrofluorescein diacetate (H2DCFA) to a fluorescent derivative. To study the effects of the TPs on oxidative stress, RAW cells were treated with 10-100 nM of the TPs for 18 hours. Cells were then incubated with 10 μM H2DCFA for […] and challenged with 250 μM of tert-butyl hydroperoxide (tBHP) for 15 minutes. The mean fluorescence intensity was measured by flow cytometry, using a 480 nm excitation wavelength and a 525 nm emission wavelength.
compound,measurement,value
"COC(=O)[C@]12CCC(C)(C)C[C@H]1[C@H]1C(=O)C=C3[C@@]4(C)C=C(C#N)C(=O)C(C)(C)[C@@H]4CC[C@@]3(C)[C@]1(C)CC2 [CDDO-Me, bardoxolone methyl]",protection against ROS at 100 nM compared with 10 nM,slightly better
